From US10125125B2, “N-(heteroaryl)-sulfonamide derivatives useful as S100-inhibitors” (Active Biotech AB, priority 2013, dated 2018) come the findings set out here.

Structures are written as SMILES.

For orientation: IC50 means the concentration that inhibits the measured activity by half.

biotinylated human S100A9 : rhRAGE-Fc interaction, sequence (P06702 whole entry): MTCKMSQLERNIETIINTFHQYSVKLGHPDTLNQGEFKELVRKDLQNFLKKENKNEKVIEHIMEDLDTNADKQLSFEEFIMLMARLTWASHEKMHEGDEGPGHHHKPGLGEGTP

The target in this test is biotinylated human S100A9 : rhRAGE-Fc interaction (Homo sapiens (Human), UniProt P06702). Nature of the test: AlphaScreen inhibition assay, Biot-hS100A9:hRAGE-Fc (S100A9-RAGE inhibition assay). It counts as binding. The source says:
FIG. 1 is a schematic representation of an assay of the inhibition of the interaction between biotinylated human S100A9 and human RAGE-Fc using a small molecule S100A9 binder.
Inhibition Assay, Biot-hS100A9:hRAGE-Fc
The AlphaScreen (Amplified Luminescent Proximity Homogeneous Assay) contains two types of beads, Alpha Donor beads and Acceptor beads (PerkinElmer). Upon laser excitation at 680 nm a photosensitizer in the Donor bead converts ambient oxygen to a more excited singlet state. The singlet oxygen molecule diffuses (maximum 200 nm) to react with a thioxene derivative in the Acceptor bead and generates a chemiluminescence reaction. Fluorophores in the Acceptor bead subsequently emit light at 520-620 nm which can be detected in the EnVision® Multilabel plate Reader (PerkinElmer). The beads are light sensitive and all work with the beads is performed under subdued light conditions or using green filters on light sources (Roscolux Chroma Green #389, Rosco).
In the AlphaScreen Inhibition Assay described here, protein A (Staphylococcus aureus) conjugated Acceptor beads are used together with streptavidin coated Donor beads (Perkin Elmer 6760617M). The Acceptor beads are pre-incubated with Fc-tagged recombinant human RAGE (rhRAGE-Fc) allowing binding of the rhRAGE-Fc to protein A on the beads. Biotinylated human S100A9 (biot-hS100A9) is pre-incubated with the low molecular test compounds. The pre-mixes are then added to the wells of a micro-plate and incubated allowing interaction between biot-hS100A9 and rhRAGE-Fc. Subsequent addition of streptavidin coated Donor beads causes binding of the streptavidin to the biotinylated hS100A9. After an additional incubation the signal is measured.
Without inhibitory compounds, the interaction of biot-hS100A9 to rhRAGE-Fc will bring the Acceptor and Donor beads in close proximity thus generating a high signal. With an inhibitor present the complex will not form resulting in a decreased signal.
Chemicals and reagents. • AlphaScreen® General IgG (Protein A) Detection Kit, (PerkinElmer 6760617M) • HBS-P buffer (GE Healthcare, BR-1003-68) • HBS-N buffer (GE Healthcare, BR-1003-69) • CaCl2 in HBS-P • ZnCl2 in Milli-Q water • DMSO • Biotinylated hS100A9, (biotinylated via cystein by EZ-link Iodoacetyl-PEG2-Biotin reagent (Pierce no. 21334), in HBS-N • rhRAGE-Fc (R&D Systems, 1145-RG-50), in HBS-P
The AlphaScreen assay method is used for screening of the inhibitory effect of different compound samples at fixed concentrations or for IC50 determination by varying the compound concentrations. Samples of test compounds and references are prepared from solutions in DMSO. Relevant reference inhibitors and DMSO are used as controls for defined inhibition and non-inhibition, respectively in the assay. The percent inhibition in assay for test compounds and references are calculated by comparing their obtained assay signals with the signal values for the control with only DMSO (no compound).
Assay concentration of biotinylated hS100A9 and rhRAGE-Fc are batch dependent, and are determined and defined by separate cross-titration experiments using this AlphaScreen inhibition method to verify the optimal setup regarding signal strength and achievement of a defined inhibition with relevant reference compounds. The Final assay concentrations of Acceptor and Donor beads are 20 μg/mL.
Experimental Set Up for Screening, Preparation of Solutions and Beads.
Assay buffer is prepared by adding CaCl2 and ZnCl2 to HBS-P and is used freshly prepared in the experiment.
Biotin-hS100A9 solution for the experiment is prepared by dilution of appropriate amount of stock solution biot-hS100A9 in assay buffer (with CaCl2 and ZnCl2) and incubation in room temperature for 30 minutes.
rhRAGE-Fc solution for the experiment is prepared by dilution appropriate amount of rhRAGE-Fc stock in assay buffer.
Protein A Acceptor beads are diluted in assay buffer and are added to an equal volume of the prepared diluted rhRAGE-Fc solution.
For orientation: In Alpha technology, singlet oxygen from a donor bead excites a nearby acceptor bead.
Regarding `O=S(=O)(Cc1cc(Cl)cc(Cl)c1)Nc1nnc(Cl)cc1O` [Example 36, N-(6-chloro-4-hydroxypyridazin-3-yl)-1-(3,5-dichlorophenyl)methanesulfonamide], the IC50 is 0.1 µM. Consider `O=S(=O)(Nc1cc(Cl)cnc1O)c1cc(Cl)sc1Cl` [Example 74, 2,5-dichloro-N-(5-chloro-2-hydroxypyridin-3-yl)thiophene-3-sulfonamide], for which the IC50 worked out at 2.6 µM. With `O=S(=O)(Nc1cncc(Cl)c1O)c1cc(Cl)cc(Cl)c1` [Example 89, 3,5-dichloro-N-(5-chloro-4-hydroxypyridin-3-yl)benzene-1-sulfonamide] the figure was 2.1 µM; with `O=S(=O)(Cc1cc(Cl)cc(Cl)c1)Nc1ccncc1O` [Example 167, 1-(3,5-dichlorophenyl)-N-(3-hydroxypyridin-4-yl)methanesulfonamide], less than 1 µM. For the molecule `N#Cc1nc(NS(=O)(=O)Cc2cc(Cl)cc(Cl)c2)c(O)cc1Cl` [Example 130, N-(5-chloro-6-cyano-3-hydroxypyridin-2-yl)-1-(3,5-dichlorophenyl)methane-sulfonamide], the IC50 was found to be 0.39 µM. For `CCN(CC)C(=O)c1cc(Cl)cc(CS(=O)(=O)Nc2nnc(Cl)cc2O)c1` [Example 161, 3-chloro-5-{[(6-chloro-4-hydroxypyridazin-3-yl)sulfamoyl]methyl}-N,N-diethylbenzamide], the IC50 was determined as 5.1 µM. Under `O=S(=O)(Cc1cccc(Cl)c1)Nc1nnc(Cl)cc1O` [Example 96, N-(6-chloro-4-hydroxypyridazin-3-yl)-1-(3-chlorophenyl)methanesulfonamide] stands 0.41 µM; under `O=S(=O)(Nc1nnc(Cl)cc1O)c1cc(Cl)cc(Cl)c1` [Example 95, 3,5-dichloro-N-(6-chloro-4-hydroxypyridazin-3-yl)benzene-1-sulfonamide], 0.7 µM; under `O=S(=O)(Nc1nnc(C(F)(F)F)cc1O)c1cc(F)cc(Cl)c1` [Example 163, 3-chloro-5-fluoro-N-[4-hydroxy-6-(trifluoromethyl)pyridazin-3-yl]benzene-1-sulfonamide], more than 1 µM. With `O=S(=O)(Cc1ccc(F)c(F)c1)Nc1nnc(Cl)cc1O` [Example 76, N-(6-chloro-4-hydroxypyridazin-3-yl)-1-(3,4-difluorophenyl)methanesulfonamide] the figure was less than 1 µM. Regarding `O=S(=O)(Cc1cc(Cl)cc(Cl)c1)Nc1cc(Cl)c(Cl)nc1O` [Example 173, N-(5,6-dichloro-2-hydroxypyridin-3-yl)-1-(3,5-dichlorophenyl)methanesulfonamide], the IC50 was less than 1 µM. With `O=S(=O)(Cc1ccc(Cl)c(Cl)c1)Nc1cnc(Cl)cc1O` [Example 70, N-(6-chloro-4-hydroxypyridin-3-yl)-1-(3,4-dichlorophenyl)methanesulfonamide] the figure was 0.8 µM; with `CCS(=O)(=O)c1cnc(NS(=O)(=O)Cc2cccc(Cl)c2)c(O)n1` [Example 88, 1-(3-chlorophenyl)-N-[5-(ethanesulfonyl)-3-hydroxypyrazin-2-yl]methane-sulfonamide], more than 1 µM; with `O=S(=O)(Nc1ncc(Cl)cc1O)c1ccc(C(F)(F)F)nc1` [Example 41, N-(5-chloro-3-hydroxypyridin-2-yl)-6-(trifluoromethyl)pyridine-3-sulfonamide], more than 1 µM. Regarding `N#Cc1cc(CS(=O)(=O)Nc2ncc(Cl)cc2O)cs1` [Example 127, N-(5-chloro-3-hydroxypyridin-2-yl)-1-(5-cyanothiophen-3-yl)methanesulfonamide], the IC50 worked out at 1.11 µM.

For `CS(=O)(=O)c1cc(O)c(NS(=O)(=O)c2cc(Cl)cc(Cl)c2)cn1` [Example 155, 3,5-dichloro-N-(4-hydroxy-6-methanesulfonylpyridin-3-yl)benzene-1-sulfonamide], the IC50 was more than 1 µM.

As to `O=S(=O)(Cc1cc(Cl)sc1Cl)Nc1ncc(Cl)cc1O` [Example 20, N-(5-chloro-3-hydroxypyridin-2-yl)-1-(2,5-dichlorothiophen-3-yl)methane-sulfonamide], the IC50 was less than 1 µM.

On to `O=S(=O)(Nc1ccnc(Cl)c1O)c1cc(Cl)cc(Cl)c1` [Example 170, 3,5-dichloro-N-(2-chloro-3-hydroxypyridin-4-yl)benzene-1-sulfonamide], for which the IC50 was less than 1 µM. On to `CS(=O)(=O)c1cnc(NS(=O)(=O)Cc2cc(Cl)cc(Cl)c2)c(O)n1` [Example 112, 1-(3,5-dichlorophenyl)-N-(3-hydroxy-5-methanesulfonylpyrazin-2-yl)methane-sulfonamide], for which the IC50 was determined as 0.42 µM. With `O=S(=O)(Cc1cc(Cl)cc(Cl)c1)Nc1nc(Cl)ncc1O` [Example 143, N-(2-chloro-5-hydroxypyrimidin-4-yl)-1-(3,5-dichlorophenyl)methanesulfonamide] the figure was 0.18 µM; with `CCCc1ccc(S(=O)(=O)Nc2ccc(Cl)nc2O)cc1` [Example 179, N-(6-chloro-2-hydroxypyridin-3-yl)-4-propylbenzene-1-sulfonamide], less than 1 µM. As to `O=S(=O)(Cc1ccc(Cl)c(Cl)c1)Nc1cc(Cl)cnc1O` [Example 172, N-(5-chloro-2-hydroxypyridin-3-yl)-1-(3,4-dichlorophenyl)methanesulfonamide], the IC50 worked out at 3.1 µM. With `COc1ncc(S(=O)(=O)Nc2cncc(Cl)c2O)cc1Br` [Example 59, 5-bromo-N-(5-chloro-4-hydroxypyridin-3-yl)-6-methoxypyridine-3-sulfonamide] the figure was 2.8 µM. Consider `COc1ccc(S(=O)(=O)Nc2cncc(Cl)c2O)cc1Cl` [Example 122, 3-chloro-N-(5-chloro-4-hydroxypyridin-3-yl)-4-methoxybenzene-1-sulfonamide], for which the IC50 is more than 1 µM.

On to `CS(=O)(=O)c1cnc(NS(=O)(=O)Cc2cc(Cl)cc(Cl)c2)c(O)c1` [Example 32, 1-(3,5-dichlorophenyl)-N-(3-hydroxy-5-methanesulfonylpyridin-2-yl)methane-sulfonamide], for which the IC50 amounted to 0.14 µM. Turning to `N#Cc1ccc(Cl)c(CS(=O)(=O)Nc2nnc(Cl)cc2O)c1` [Example 85, N-(6-chloro-4-hydroxypyridazin-3-yl)-1-(2-chloro-5-cyanophenyl)methane-sulfonamide], the IC50 turned out to be 0.98 µM. Under `N#Cc1cncc(NS(=O)(=O)Cc2cc(Cl)cc(Cl)c2)c1O` [Example 138, N-(5-cyano-4-hydroxypyridin-3-yl)-1-(3,5-dichlorophenyl)methanesulfonamide] stands 3.9 µM; under `O=S(=O)(Cc1cc(Cl)cc(Cl)c1)Nc1nnc(S(=O)(=O)CCCO)cc1O` [Example 139, 1-(3,5-dichlorophenyl)-N-[4-hydroxy-6-(3-hydroxypropanesulfonyl)pyridazin-3-yl]methanesulfonamide], less than 1 µM.

On to `O=S(=O)(Cc1cc(Cl)cc(Cl)c1)Nc1cncc(Br)c1O` [Example 97, N-(5-bromo-4-hydroxypyridin-3-yl)-1-(3,5-dichlorophenyl)methanesulfonamide], for which the IC50 was 3.8 µM. For the molecule `COc1ncc(S(=O)(=O)Nc2nnc(Cl)cc2O)cc1Br` [Example 114, 5-bromo-N-(6-chloro-4-hydroxypyridazin-3-yl)-6-methoxypyridine-3-sulfonamide], the IC50 stood at 1 µM. Under `O=S(=O)(Nc1cncc(Cl)c1O)c1ccc(OC(F)(F)F)c(Cl)c1` [Example 102, 3-chloro-N-(5-chloro-4-hydroxypyridin-3-yl)-4-(trifluoromethoxy)benzene-1-sulfonamide] stands 2.2 µM. For the molecule `CN(C)c1ncc(S(=O)(=O)Nc2ncc(Cl)cc2O)cc1S(C)(=O)=O` [Example 136, N-(5-chloro-3-hydroxypyridin-2-yl)-6-(dimethylamino)-5-methanesulfonylpyridine-3-sulfonamide], the IC50 was more than 1 µM.
